# Results as given in ChEMBL document CHEMBL5303766, “Data for DCP probe FHT-2344” (2022).
# Experiments:
# [1] = molecular target: Dual specificity protein kinase CLK1 (Homo sapiens) (UniProt P49759); assay: CLK1 SGC Tm panel (DSF); settings: for ΔTm: Compound concentration 10.0 uM
# [2] = molecular target: Ephrin type-A receptor 2 (Homo sapiens) (UniProt P29317); assay: EPHA2 SGC Tm panel (DSF); settings: for ΔTm: Compound concentration 10.0 uM
# [3] = molecular target: Fibroblast growth factor receptor 2 (Homo sapiens) (UniProt P21802); assay: FGFR2 SGC Tm panel (DSF); settings: for ΔTm: Compound concentration 10.0 uM
# Chain of Fibroblast growth factor receptor 2 (Homo sapiens) (P21802 22-821 limits assumed): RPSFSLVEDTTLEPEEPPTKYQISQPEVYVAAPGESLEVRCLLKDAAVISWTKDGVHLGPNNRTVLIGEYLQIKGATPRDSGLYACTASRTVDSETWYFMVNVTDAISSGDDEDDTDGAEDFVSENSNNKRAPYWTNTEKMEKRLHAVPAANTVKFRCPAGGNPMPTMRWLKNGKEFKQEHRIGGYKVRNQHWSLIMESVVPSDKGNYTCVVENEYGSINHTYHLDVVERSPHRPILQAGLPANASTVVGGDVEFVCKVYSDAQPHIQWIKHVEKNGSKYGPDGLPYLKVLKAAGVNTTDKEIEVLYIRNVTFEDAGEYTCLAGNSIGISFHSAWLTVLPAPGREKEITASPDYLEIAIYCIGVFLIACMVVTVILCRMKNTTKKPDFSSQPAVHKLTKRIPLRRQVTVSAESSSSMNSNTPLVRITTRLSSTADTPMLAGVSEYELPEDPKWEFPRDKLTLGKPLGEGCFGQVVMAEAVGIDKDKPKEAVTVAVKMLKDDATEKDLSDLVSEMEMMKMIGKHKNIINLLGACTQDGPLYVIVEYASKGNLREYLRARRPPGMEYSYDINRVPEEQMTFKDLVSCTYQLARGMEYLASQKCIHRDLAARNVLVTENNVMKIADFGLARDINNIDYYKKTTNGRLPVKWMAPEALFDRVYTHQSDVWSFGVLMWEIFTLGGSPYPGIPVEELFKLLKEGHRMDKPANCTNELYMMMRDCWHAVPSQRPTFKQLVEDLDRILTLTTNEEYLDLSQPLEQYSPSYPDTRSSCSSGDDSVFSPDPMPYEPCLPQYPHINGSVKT
# [4] = molecular target: T1, Serine/threonine-protein kinase PLK4 (Homo sapiens) (UniProt O00444); assay: PLK4 SGC Tm panel (DSF); settings: for ΔTm: Compound concentration 10.0 uM
# T1 sequence (whole entry): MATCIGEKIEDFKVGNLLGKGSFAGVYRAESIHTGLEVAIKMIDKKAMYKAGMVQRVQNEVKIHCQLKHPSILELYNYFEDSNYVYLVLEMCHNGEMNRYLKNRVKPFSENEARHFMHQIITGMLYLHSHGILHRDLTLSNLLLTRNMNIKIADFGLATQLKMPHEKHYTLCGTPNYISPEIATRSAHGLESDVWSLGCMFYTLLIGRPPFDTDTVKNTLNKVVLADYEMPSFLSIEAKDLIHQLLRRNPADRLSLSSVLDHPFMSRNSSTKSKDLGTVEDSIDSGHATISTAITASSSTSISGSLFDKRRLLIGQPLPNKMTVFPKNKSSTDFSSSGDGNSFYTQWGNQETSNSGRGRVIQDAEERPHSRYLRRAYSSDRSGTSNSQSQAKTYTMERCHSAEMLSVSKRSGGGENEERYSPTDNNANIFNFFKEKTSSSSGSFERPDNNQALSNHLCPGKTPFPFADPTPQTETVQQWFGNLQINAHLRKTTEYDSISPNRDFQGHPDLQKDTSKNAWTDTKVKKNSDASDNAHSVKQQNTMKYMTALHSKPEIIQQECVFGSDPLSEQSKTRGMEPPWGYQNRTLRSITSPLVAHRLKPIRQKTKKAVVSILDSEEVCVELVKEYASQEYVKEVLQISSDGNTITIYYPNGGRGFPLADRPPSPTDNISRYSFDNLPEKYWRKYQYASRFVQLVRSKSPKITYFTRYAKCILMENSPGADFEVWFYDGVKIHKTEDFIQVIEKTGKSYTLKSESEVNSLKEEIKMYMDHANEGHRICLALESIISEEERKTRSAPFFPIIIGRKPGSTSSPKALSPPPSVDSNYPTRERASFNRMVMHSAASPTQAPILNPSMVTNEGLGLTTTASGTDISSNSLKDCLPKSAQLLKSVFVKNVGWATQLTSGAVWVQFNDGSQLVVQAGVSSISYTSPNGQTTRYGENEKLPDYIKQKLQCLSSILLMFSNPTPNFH
# [5] = molecular target: Proto-oncogene tyrosine-protein kinase Src (Homo sapiens) (UniProt P12931); assay: SRC SGC Tm panel (DSF); settings: for ΔTm: Compound concentration 10.0 uM
# Chain of Proto-oncogene tyrosine-protein kinase Src (Homo sapiens) (P12931 2-536 limits assumed): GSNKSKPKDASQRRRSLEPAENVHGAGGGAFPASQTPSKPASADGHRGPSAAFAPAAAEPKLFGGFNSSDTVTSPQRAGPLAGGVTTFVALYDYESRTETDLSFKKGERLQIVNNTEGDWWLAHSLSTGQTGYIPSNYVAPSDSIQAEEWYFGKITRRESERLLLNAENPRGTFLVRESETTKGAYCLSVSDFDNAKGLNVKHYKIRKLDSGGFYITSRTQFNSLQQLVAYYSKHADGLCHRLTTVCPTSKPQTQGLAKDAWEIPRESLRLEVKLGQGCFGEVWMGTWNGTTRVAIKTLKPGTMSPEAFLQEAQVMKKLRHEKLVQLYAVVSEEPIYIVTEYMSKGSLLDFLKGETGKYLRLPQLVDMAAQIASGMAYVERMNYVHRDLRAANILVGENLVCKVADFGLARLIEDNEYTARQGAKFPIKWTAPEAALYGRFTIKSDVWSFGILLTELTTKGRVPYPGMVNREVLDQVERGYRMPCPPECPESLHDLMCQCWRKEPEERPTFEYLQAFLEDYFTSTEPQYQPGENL
# [6] = molecular target: T2, Ephrin type-B receptor 1 (Homo sapiens) (UniProt P54762); assay: EPHB1 SGC Tm panel (DSF); settings: for ΔTm: Compound concentration 10.0 uM
# T2 sequence (whole entry): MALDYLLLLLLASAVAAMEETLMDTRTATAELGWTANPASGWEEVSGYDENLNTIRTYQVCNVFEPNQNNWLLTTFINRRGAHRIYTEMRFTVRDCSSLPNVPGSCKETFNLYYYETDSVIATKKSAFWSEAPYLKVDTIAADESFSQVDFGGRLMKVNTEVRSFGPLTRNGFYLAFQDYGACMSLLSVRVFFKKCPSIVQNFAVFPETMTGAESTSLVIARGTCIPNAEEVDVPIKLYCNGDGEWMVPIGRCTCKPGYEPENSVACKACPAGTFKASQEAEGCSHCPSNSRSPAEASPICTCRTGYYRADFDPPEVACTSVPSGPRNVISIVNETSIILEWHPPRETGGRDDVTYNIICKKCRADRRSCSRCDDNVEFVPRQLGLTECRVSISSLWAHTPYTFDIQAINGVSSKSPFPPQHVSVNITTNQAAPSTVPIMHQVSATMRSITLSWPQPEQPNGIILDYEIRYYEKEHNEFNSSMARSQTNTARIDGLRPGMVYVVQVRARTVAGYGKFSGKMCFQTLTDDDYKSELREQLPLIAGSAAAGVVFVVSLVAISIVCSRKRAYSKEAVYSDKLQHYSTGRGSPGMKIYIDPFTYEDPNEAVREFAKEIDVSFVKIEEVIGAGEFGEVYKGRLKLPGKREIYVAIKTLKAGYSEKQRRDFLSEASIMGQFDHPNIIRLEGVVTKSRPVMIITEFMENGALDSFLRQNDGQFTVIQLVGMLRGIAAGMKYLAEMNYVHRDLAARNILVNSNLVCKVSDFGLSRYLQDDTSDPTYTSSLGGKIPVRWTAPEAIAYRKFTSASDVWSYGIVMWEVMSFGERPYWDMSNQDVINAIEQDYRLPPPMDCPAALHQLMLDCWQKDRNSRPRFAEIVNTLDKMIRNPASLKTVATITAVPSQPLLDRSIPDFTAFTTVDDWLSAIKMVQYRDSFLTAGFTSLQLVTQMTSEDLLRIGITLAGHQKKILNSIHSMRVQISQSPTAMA
# [7] = molecular target: 5-hydroxytryptamine receptor 2A (Homo sapiens) (UniProt P28223); settings: Compound concentration 10.0 uM
# Chain of 5-hydroxytryptamine receptor 2A (Homo sapiens) (P28223 whole entry): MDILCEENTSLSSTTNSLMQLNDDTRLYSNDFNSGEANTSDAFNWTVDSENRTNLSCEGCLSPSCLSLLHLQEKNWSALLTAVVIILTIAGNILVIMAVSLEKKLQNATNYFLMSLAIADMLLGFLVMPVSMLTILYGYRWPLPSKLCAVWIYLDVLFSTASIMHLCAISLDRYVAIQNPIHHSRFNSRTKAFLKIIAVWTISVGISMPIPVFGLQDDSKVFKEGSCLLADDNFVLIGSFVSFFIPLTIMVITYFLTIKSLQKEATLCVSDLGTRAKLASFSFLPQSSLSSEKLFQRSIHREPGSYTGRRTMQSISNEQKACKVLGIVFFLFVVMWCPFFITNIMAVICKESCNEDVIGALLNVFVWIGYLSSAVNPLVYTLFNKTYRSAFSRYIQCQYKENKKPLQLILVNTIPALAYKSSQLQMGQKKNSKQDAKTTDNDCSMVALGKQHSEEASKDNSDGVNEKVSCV
# [8] = molecular target: Alpha-2B adrenergic receptor (Homo sapiens) (UniProt P18089); settings: Compound concentration 10.0 uM
# Chain of Alpha-2B adrenergic receptor (Homo sapiens) (P18089 whole entry): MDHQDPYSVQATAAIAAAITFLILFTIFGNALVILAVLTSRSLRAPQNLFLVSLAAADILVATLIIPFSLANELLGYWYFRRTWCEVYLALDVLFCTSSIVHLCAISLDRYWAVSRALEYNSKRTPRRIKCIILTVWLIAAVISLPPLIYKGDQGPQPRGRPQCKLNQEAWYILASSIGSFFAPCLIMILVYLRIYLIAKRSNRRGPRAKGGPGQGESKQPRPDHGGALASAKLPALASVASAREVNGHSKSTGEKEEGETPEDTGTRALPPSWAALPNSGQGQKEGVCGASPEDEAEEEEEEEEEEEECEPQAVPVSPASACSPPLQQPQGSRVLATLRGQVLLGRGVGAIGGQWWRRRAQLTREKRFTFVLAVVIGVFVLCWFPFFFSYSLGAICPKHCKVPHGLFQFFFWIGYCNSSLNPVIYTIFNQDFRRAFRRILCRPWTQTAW
# Chain of Ephrin type-A receptor 2 (Homo sapiens) (P29317 whole entry): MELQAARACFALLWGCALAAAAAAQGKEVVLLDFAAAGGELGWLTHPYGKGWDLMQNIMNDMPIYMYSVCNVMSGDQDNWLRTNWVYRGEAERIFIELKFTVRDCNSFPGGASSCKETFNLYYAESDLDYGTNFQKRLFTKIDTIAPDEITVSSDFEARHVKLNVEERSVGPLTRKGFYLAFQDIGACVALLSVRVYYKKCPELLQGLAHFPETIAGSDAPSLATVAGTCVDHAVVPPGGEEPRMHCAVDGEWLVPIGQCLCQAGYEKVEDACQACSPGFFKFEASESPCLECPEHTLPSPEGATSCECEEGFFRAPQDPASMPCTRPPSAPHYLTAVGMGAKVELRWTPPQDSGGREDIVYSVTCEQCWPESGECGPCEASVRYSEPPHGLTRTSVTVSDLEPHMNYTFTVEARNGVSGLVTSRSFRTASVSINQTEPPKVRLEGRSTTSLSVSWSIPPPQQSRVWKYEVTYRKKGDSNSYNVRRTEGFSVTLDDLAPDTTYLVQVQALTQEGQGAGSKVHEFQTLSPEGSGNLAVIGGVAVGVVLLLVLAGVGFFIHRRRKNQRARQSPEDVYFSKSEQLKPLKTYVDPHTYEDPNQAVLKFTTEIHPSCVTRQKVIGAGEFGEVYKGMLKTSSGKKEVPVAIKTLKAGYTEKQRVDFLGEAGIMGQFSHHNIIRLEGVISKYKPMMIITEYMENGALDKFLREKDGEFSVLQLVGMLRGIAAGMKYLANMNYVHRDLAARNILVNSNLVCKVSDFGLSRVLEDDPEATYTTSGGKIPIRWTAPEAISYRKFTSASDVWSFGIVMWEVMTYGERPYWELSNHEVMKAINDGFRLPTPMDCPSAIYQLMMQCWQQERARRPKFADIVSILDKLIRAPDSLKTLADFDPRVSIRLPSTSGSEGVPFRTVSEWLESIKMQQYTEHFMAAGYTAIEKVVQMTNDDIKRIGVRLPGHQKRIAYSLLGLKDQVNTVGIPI
# Chain of Dual specificity protein kinase CLK1 (Homo sapiens) (P49759 whole entry, looked up): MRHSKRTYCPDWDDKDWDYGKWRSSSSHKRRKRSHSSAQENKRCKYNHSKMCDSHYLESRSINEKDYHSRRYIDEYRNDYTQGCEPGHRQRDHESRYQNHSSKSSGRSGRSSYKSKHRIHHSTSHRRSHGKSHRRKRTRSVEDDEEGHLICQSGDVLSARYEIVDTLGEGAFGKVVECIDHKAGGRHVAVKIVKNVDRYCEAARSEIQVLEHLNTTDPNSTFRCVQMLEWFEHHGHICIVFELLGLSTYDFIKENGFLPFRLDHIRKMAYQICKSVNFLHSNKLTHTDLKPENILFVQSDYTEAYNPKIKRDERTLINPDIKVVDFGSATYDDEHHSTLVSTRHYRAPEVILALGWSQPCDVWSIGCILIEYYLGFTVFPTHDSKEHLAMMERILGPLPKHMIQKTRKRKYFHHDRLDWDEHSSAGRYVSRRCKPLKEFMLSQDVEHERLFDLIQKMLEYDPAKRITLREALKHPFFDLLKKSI
SMILES,delta Tm Staurosporine positive control [1],ΔTm [1],delta Tm Staurosporine positive control [2],ΔTm [2],delta Tm Staurosporine positive control [3],ΔTm [3],delta Tm Staurosporine positive control [4],ΔTm [4],delta Tm Staurosporine positive control [5],ΔTm [5],delta Tm Staurosporine positive control [6],ΔTm [6],inhibition [7] [%],inhibition [8] [%]
C[C@H](NC(=O)c1cn(C2(C#N)CC2)cn1)C(=O)Nc1nc(-c2cccc(-c3ccn(C)n3)c2)cs1,10.9,0.522,7.67,0.2,8.53,0.191,19.9,0.729,5.5,0.346,6.19,0.229,-5.53,14.6
COC[C@H](NC(=O)c1ccn(S(C)(=O)=O)c1)C(=O)Nc1nc(-c2cccc(-c3ccn(C)n3)c2)cs1,10.9,0.489,7.67,0.202,8.53,0.294,19.9,0.546,5.5,-0.156,6.19,-0.318,4.18,6.88
